Assay results from PubChem BioAssay (NCI).
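How tested: cells in 96-well plates exposed to compound for 48 hours at five concentrations. The concentration for 50% growth inhibition is given as GI50. The concentration for full growth arrest is given as TGI.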

Assays:
Experiment in all cases: NCI tumour cell line growth inhibition, 48 h
HCC-2998 colon = tested on: HCC-2998 colon
HCT-15 colon = tested on: HCT-15 colon
IGROV1 ovarian = tested on: IGROV1 ovarian
OVCAR-3 ovarian = tested on: OVCAR-3 ovarian
RPMI-8226 leukemia = tested on: RPMI-8226 leukemia
SF-268 CNS = tested on: SF-268 CNS
SK-MEL-28 melanoma = tested on: SK-MEL-28 melanoma
UACC-62 melanoma = tested on: UACC-62 melanoma
ACHN renal = tested on: ACHN renal
MDA-N = tested on: MDA-N

SMILES	TGI (HCC-2998 colon) [µM]	TGI (HCT-15 colon) [µM]	TGI (IGROV1 ovarian) [µM]	TGI (OVCAR-3 ovarian) [µM]	TGI (RPMI-8226 leukemia) [µM]	TGI (SF-268 CNS) [µM]	TGI (SK-MEL-28 melanoma) [µM]	TGI (UACC-62 melanoma) [µM]	TGI (ACHN renal) [µM]	TGI (MDA-N) [µM]	GI50 (ACHN renal) [µM]	GI50 (HCC-2998 colon) [µM]	GI50 (HCT-15 colon) [µM]	GI50 (IGROV1 ovarian) [µM]	GI50 (OVCAR-3 ovarian) [µM]	GI50 (RPMI-8226 leukemia) [µM]	GI50 (SF-268 CNS) [µM]	GI50 (SK-MEL-28 melanoma) [µM]	GI50 (UACC-62 melanoma) [µM]	GI50 (MDA-N) [µM]
CCCCOc1ccc(OCCCCCCCCCC[N+](C)(C)C)cc1	6.28	30.5	3.52	7.89	2.33	13.9	18	15.7												
CCC(O)(Cc1ccc(OC)cc1)c1ccc(OC)cc1 (stereo not given)	> 100	> 100	> 100	> 100	> 100	> 100		> 100	> 100	> 100										
Cc1cc2c(O)c(c1)CN(CC(=O)O)Cc1cc(C)cc(c1O)CN(CC(=O)O)Cc1cc(C)cc(c1O)CN(CC(=O)O)C2	> 100	> 100		> 100	> 100	> 100	> 100	> 100	> 100	> 100										
COc1ccc(Nc2nc(N)c(C(=O)c3c[nH]c4ccccc34)s2)cc1		8.91	> 100	4.14		> 100	> 91.6	> 100	> 100	0.878										
C/C(Cl)=N\OC(=O)Nc1ccc(C)cc1	31.4	31.5	32.5	34.3		32.9	28.1		29.1	29.9										
CN(C)CCNC(=O)c1cc(Cl)cc2ccc(-c3ccccc3)nc12	13.8	9.49	14.2	15.8	5.32	19.2	16.1	6.36												
Cc1ccc(C(=O)N/N=C(\N=Nc2ccccc2)c2ccc(N(C)C)cc2)cc1	> 100	> 100	> 100	> 100	> 100	> 100	> 100	> 100		> 100										
COc1cc(-c2n/c(=C\c3c(O)[nH]c4ccc(Cl)cc34)cc3c2=Nc2ccccc2-3)ccc1F	8.81	6.98	5.17	4.06	> 100	4.65	5.02	3.2	3.76		1.85	2.94	2.49	2.07	1.98	6.75	2.05	2.27	1.65	
N#C/C(=C/n1c(=S)[nH]c2ccc([N+](=O)[O-])cc21)C(N)=O		> 100	> 100	> 100	> 100	> 100	> 100	> 100	> 100	> 100										
CS(=O)(=O)CSCSSCS(C)(=O)=O	> 100	> 84.8	> 100	> 100	55.3	77.5	66.4	47	> 100											
COc1cccc2c1C(=O)c1c(O)c3c(c(O)c1C2=O)C[C@H](O)C[C@@H]3OC1CC(N)C(O)C(C)O1 (stereo not given in full)		58	12.4	7.34	8.8	10.6	9.13	1.82	3.54											
O=S(=O)(O)c1ccc(N=Nc2ccc(N=Nc3ccc(/C=C/c4ccc(N=[N+]([O-])c5ccc(/C=C/c6ccc(N=Nc7ccc(N=Nc8ccc(S(=O)(=O)O)cc8)cc7)cc6S(=O)(=O)O)c(S(=O)(=O)O)c5)cc4S(=O)(=O)O)c(S(=O)(=O)O)c3)cc2)cc1	> 100	> 100	> 100	> 100	> 100	> 100	> 100	> 100												
CCOC(=O)C1(C#N)C(c2ccccc2)CC(O)(c2ccc(Cl)cc2)C(C(=O)c2ccc(Cl)cc2)C1c1ccccc1 (stereo not given)	> 100	> 100	> 100	> 100	> 100	> 100	> 100	> 100	> 100											
CSc1cc(=O)n2c3ccccc3c3ccnc1c32	> 100	> 100	> 79.1	> 100	> 100	> 75.5	> 100	> 100												
COC(=O)C1=C(C(=O)OC)SC(=CC#CC=C2SC(C(=O)OC)=C(C(=O)OC)S2)S1	> 100	> 45.1	45.8	17	> 100	> 60.1	> 63.2	29.1	34.6											
COc1cc2cc(C(=O)N3C[C@H](CCl)c4c3cc(N)c3ccccc43)[nH]c2c(OC)c1OC	< 0.005	> 50	0.393	0.936	> 50	1.74			< 0.005	9.03		< 0.005		0.005	0.005	0.005	0.005			< 0.001
COc1cc(C(c2c(O)c3ccccc3oc2=O)c2c(O)c3ccccc3oc2=O)cc(Br)c1O		36.4	30	30.9	80.4	30	59.2	29.6	31.2	36										
CC(C)C(CC(=O)OCC(CO)OC(=O)CC(C(C)C)C(C)C)C(C)C (stereo not given)	30.9	30.7	33.2	27.2		27.6	30.3	32.8	24.3	30.1										
COc1ccc(OC2OC(CO)C(OCc3ccccc3)C(OCc3ccccc3)C2OCc2ccccc2)cc1 (stereo not given)	> 100		> 100	> 100	> 100	> 100	> 100	> 100	> 100	> 100										
O=C(O)c1cccc2cccc(-c3cccc4cccc(C(=O)O)c34)c12	> 100	> 100	> 100	> 100		> 100	> 100	> 100	> 100	> 100										
COc1ccccc1CN=C1Nc2ccncc2S(=O)(=O)N1c1ccccc1	> 100	> 100	> 100	> 100	> 100		> 100	> 100	> 100											
CN(C)CCCNC(=O)c1cc(NC(=O)c2cc(NC(=O)CCCn3c4ccccc4c4ccccc43)cn2C)cn1C	18.7	> 75.5	> 75.9	> 72.5	39.3	41.6	92	23	> 65.9										7.28	
